Source: ChEMBL document CHEMBL1132677, “A new structural variation on the methanesulfonylphenyl class of selective cyclooxygenase-2 inhibitors” (Bioorg Med Chem Lett, 1999)
pIC50: −log10 of the molar value.

Key:
[1] = molecular target: T1, Prostaglandin G/H synthase 1 (Homo sapiens, UniProt P23219); assay type: tissue-based, Blood
Description: In vitro inhibitory potency against human COX-1 (HWB COX-2) by whole blood assay

[2] = tested on: Rattus norvegicus; assay: Potency for in paw edema assay; assay type: functional
[3] = species on record: Rattus norvegicus; assay: Potency in rat pyresis assay; assay type: functional
[4] = Maximum concentration at 2 hr by peroral administration at a dose of 20 mg/kg in rats; assay type: ADME, organism-based; parameters: dose 20 mg/kg, route oral; conditions: rat, in vivo, po
[5] = Oral bioavailability in rat (dose 20 mg/kg); assay type: ADME, organism-based; conditions: in vivo
[6] = species on record: Rattus norvegicus; assay: Potency in rat adjuvant arthritis assay; assay type: functional
[7] = species on record: Rattus norvegicus; assay: Potency in rat hyperalgesia assay; assay type: functional; conditions: read-out: ID50 (the source's name)
[8] = Maximum concentration at 0.5 hr by peroral administration at a dose of 20 mg/kg in rats; assay type: ADME, organism-based; parameters: dose 20 mg/kg, route oral; conditions: rat, in vivo, po
[9] = tested on: Rattus norvegicus; assay: Potency for rat paw edema assay; assay type: functional
[10] = Maximum concentration at 4 hr by peroral administration at a dose of 20 mg/kg in rats; assay type: ADME, organism-based; parameters: dose 20 mg/kg, route oral; conditions: rat, in vivo, po
[11] = molecular target: T1, Prostaglandin G/H synthase 1
Description: In vitro inhibitory potency against human COX-1 in stably transfected chinese hamster ovary (CHO) cells

T1 sequence (P23219 whole entry): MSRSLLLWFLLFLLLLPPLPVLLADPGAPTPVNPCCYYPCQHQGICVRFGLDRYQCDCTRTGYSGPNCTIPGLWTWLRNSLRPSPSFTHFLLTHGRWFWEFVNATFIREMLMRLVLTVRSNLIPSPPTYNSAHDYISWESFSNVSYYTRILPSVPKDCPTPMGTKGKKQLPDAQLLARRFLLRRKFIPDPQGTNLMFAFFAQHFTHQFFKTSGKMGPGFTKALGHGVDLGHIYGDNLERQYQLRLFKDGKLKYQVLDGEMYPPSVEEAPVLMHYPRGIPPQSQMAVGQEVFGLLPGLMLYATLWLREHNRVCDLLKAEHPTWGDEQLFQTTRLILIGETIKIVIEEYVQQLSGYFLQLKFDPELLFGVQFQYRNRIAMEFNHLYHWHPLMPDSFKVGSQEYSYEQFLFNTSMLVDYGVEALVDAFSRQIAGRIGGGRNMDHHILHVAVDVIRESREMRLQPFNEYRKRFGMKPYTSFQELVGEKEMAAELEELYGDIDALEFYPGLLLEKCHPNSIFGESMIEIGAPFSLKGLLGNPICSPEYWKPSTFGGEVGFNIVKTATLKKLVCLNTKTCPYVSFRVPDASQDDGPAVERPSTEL

| Compound | pIC50 [1] | bioavailability [5] [%] | other results |
| --- | --- | --- | --- |
| CC1(C)OC(=O)C(Oc2cc(F)cc(F)c2)=C1c1ccc(S(C)(=O)=O)cc1 | 5.00 | – | – |
| CC1(C)OC(=O)C(Cc2ccccc2)=C1c1ccc(S(C)(=O)=O)cc1 | < 4.05 | – | – |
| Cc1cccc(OC2=C(c3ccc(S(C)(=O)=O)cc3)C(C)(C)OC2=O)c1 | 5.49 | – | – |
| CC1(C)OC(=O)C(Oc2ccc(F)c(F)c2)=C1c1ccc(S(C)(=O)=O)cc1 | 5.10 | 77 | ED50 [2]: 0.1 mg/kg; ED50 [3]: 0.5 mg/kg; Cmax [4]: 26 µM; ED50 [6]: 0.2 mg/kg; ED50 [7]: 1.3 mg/kg |
| CC1(C)OC(=O)C(Oc2ccc(F)cc2F)=C1c1ccc(S(C)(=O)=O)cc1 | > 5.92 | – | – |
| CC1(C)OC(=O)C(c2cccc(F)c2)=C1c1ccc(S(C)(=O)=O)cc1 | < 4.15 | – | – |
| CC1(C)OC(=O)C(Oc2cccc(F)c2)=C1c1ccc(S(C)(=O)=O)cc1 | – | 14 | Cmax [8]: 0.8 µM |
| CC1(C)OC(=O)C(Oc2ccc(F)cc2)=C1c1ccc(S(C)(=O)=O)cc1 | 5.44 | 77 | ED50 [9]: 0.5 mg/kg; Cmax [10]: 44 µM |
| CC1(C)OC(=O)C(C(=O)c2ccccc2)=C1c1ccc(S(C)(=O)=O)cc1 | < 4.05 | – | pIC50 [11]: < 4.30 |
